Measured values published in DBAASP.
≈ marks a conversion by molar mass, not a printed value. One block for each molecule: values may come before it.

Columns and labels:
Experiment in all cases: ≥ marks a high value that may be exact or a test limit, other limits are often not marked, values filed in µg/mL are converted to µM
[1] = tested on: Enterococcus faecium t62764
[2] = tested on: Staphylococcus aureus ATCC 25923
[3] = tested on: Pseudomonas aeruginosa H103
[4] = tested on: Pseudomonas aeruginosa 198
[5] = tested on: Salmonella enterica serovar Typhimurium
[6] = tested on: Staphylococcus aureus C623
[7] = tested on: Enterobacter cloacae 218R
[8] = tested on: Pseudomonas aeruginosa H1027
[9] = tested on: Escherichia coli ESBL 64771
[10] = tested on: Pseudomonas aeruginosa H1030
[11] = tested on: Stenotrophomonas maltophilia ATCC 13637
[12] = tested on: Escherichia coli ESBL 63103
[13] = tested on: Pseudomonas aeruginosa PAO1 H103
[14] = tested on: Enterococcus faecium mic80
[15] = tested on: Klebsiella pneumoniae ESBL 63575
[16] = tested on: Escherichia coli UB1005
[17] = tested on: Staphylococcus epidermidis
[18] = tested on: Enterococcus faecalis ATCC 29212
[19] = tested on: Candida albicans
[20] = tested on: Klebsiella pneumoniae ESBL 61962
[21] = tested on: Enterococcus faecalis W61950
[22] = tested on: Pseudomonas aeruginosa 9
[23] = tested on: Streptococcus sanguinis NY101
[24] = tested on: Enterococcus faecalis
[25] = tested on: Escherichia coli W3110
[26] = tested on: Pseudomonas aeruginosa PAK
[27] = tested on: Streptococcus mutans UA159
[28] = tested on: Streptococcus mitis ATCC 903
[29] = tested on: Streptococcus sobrinus ATCC 33478
[30] = tested on: Streptococcus gordonii Challis DL1
[31] = tested on: Staphylococcus aureus
[32] = tested on: Escherichia coli PCM 2057
[33] = tested on: Micrococcus luteus ATCC 4698
[34] = tested on: Trichosporon beigelii KCTC 7707
[35] = tested on: Saccharomyces cerevisiae KCTC 7296
[36] = tested on: Candida albicans TIMM 1768
[37] = tested on: Staphylococcus aureus KCTC 1928
[38] = tested on: Micrococcus luteus KCTC 3063
[39] = tested on: Escherichia coli K-12 594
[40] = tested on: Enterococcus sp.
[41] = tested on: Candida tropicalis KCTC 1925
[42] = tested on: Bacillus subtilis KCTC 3068
[43] = tested on: Candida albicans KCTC 7965
[44] = tested on: Lactococcus lactis subsp. cremoris I116
[45] = tested on: Streptococcus gordonii DL1
[46] = tested on: Streptococcus mutans comD

MIC [1]: 0.692 µM (≈ 1 µg/mL)
MIC [2]: 2.84 µM (≈ 4.1 µg/mL)
MIC [3]: ≥ 42.3 µM
MIC [4]: 11.8 µM (≈ 17 µg/mL)
MIC [5]: 10.6 µM (≈ 15.3 µg/mL)
MIC [6]: 2.84 µM (≈ 4.1 µg/mL)
MIC [7]: ≥ 45 µM
MIC [8]: 2.84 µM (≈ 4.1 µg/mL)
MIC [9]: 2.84 µM (≈ 4.1 µg/mL)
MIC [10]: 5.75 µM (≈ 8.3 µg/mL)
MIC [11]: 1.45 µM (≈ 2.1 µg/mL)
MIC [12]: 5.75 µM (≈ 8.3 µg/mL)
MIC [13]: 2.84 µM (≈ 4.1 µg/mL)
MIC [14]: 2.84 µM (≈ 4.1 µg/mL)
MIC [15]: 22.1 µM (≈ 32 µg/mL)
MIC [16]: 5.3 µM (≈ 7.66 µg/mL)
MIC [17]: 1.3 µM (≈ 1.88 µg/mL)
MIC [18]: 11.8 µM (≈ 17 µg/mL)
MIC [19]: 10.6 µM (≈ 15.3 µg/mL)
MIC [20]: ≥ 90 µM
MIC [21]: ≥ 45 µM
MIC [22]: 22.1 µM (≈ 32 µg/mL)
SMILES: CC[C@H](C)[C@H](NC(=O)[C@@H](N)CCCCN)C(=O)N[C@@H](Cc1c[nH]c2ccccc12)C(=O)N[C@@H](Cc1c[nH]c2ccccc12)C(=O)N[C@@H](Cc1c[nH]c2ccccc12)C(=O)N[C@@H](Cc1c[nH]c2ccccc12)C(=O)N[C@@H](CCCN=C(N)N)C(=O)N[C@@H](CCCCN)C(=O)N[C@@H](CCCN=C(N)N)C(=O)O [KIWWWWRKR]

MIC [23]: ≥ 91.8 µM
MIC [24]: ≥ 91.8 µM
MIC [25]: ≥ 91.8 µM
MIC [26]: ≥ 91.8 µM
MIC [27]: ≥ 91.8 µM
MIC [28]: ≥ 91.8 µM
MIC [29]: ≥ 91.8 µM
MIC [30]: ≥ 91.8 µM
MIC [31]: > 91.8 µM
SMILES: C[C@@H](O)[C@H](NC(=O)[C@H](CO)NC(=O)[C@H](Cc1c[nH]c2ccccc12)NC(=O)[C@H](Cc1c[nH]c2ccccc12)NC(=O)[C@H](CO)NC(=O)[C@H](Cc1cnc[nH]1)NC(=O)[C@H](Cc1c[nH]c2ccccc12)NC(=O)[C@@H](N)Cc1c[nH]c2ccccc12)C(=O)N[C@@H](Cc1c[nH]c2ccccc12)C(N)=O [WWHSWWSTW]

MIC [32]: ≥ 495 µM
MIC [33]: ≥ 74.3 µM
SMILES: CC[C@H](C)[C@H](NC(=O)[C@@H](NC(=O)[C@@H](N)CO)C(C)C)C(=O)NCC(=O)N[C@H]1CSSC[C@@H](C(=O)N[C@@H](Cc2ccccc2)C(=O)N[C@H](C(=O)N[C@@H](CCCCN)C(N)=O)C(C)C)NC(=O)[C@@H]2CCCN2C(=O)[C@H](CCCN=C(N)N)NC(=O)[C@@H]2CCCN2C(=O)[C@@H]2CCCN2C(=O)[C@H]([C@@H](C)CC)NC(=O)[C@H](CO)NC(=O)[C@H](CCCCN)NC(=O)[C@H]([C@@H](C)O)NC(=O)[C@H](Cc2c[nH]c3ccccc23)NC1=O [SVIGCWTKSIPPRPCFVK]

MIC [34]: 10 µM (≈ 30 µg/mL)
MIC [35]: 10 µM (≈ 30 µg/mL)
MIC [36]: 14.1 µM (≈ 42.5 µg/mL)
SMILES: CC[C@H](C)[C@H](NC(=O)[C@@H](NC(=O)[C@@H](N)CCCNC(=N)N)[C@@H](C)CC)C(=O)N[C@@H](CC(=O)O)C(=O)N[C@@H](CC(C)C)C(=O)N[C@@H](CC(C)C)C(=O)N[C@@H](Cc1c[nH]c2ccccc12)C(=O)N[C@@H](CCCNC(=N)N)C(=O)N[C@H](C(=O)N[C@@H](CCCNC(=N)N)C(=O)N[C@@H](CCCNC(=N)N)C(=O)N1CCC[C@H]1C(=O)N[C@@H](Cc1c[nH]c2ccccc12)C(=O)N[C@@H](CCCCN)C(=O)N1CCC[C@H]1C(=O)N[C@@H](CCCCN)C(=O)N[C@@H](Cc1ccccc1)C(=O)N[C@H](C(=O)N[C@H](C(=O)N[C@H](C(=O)N[C@@H](Cc1c[nH]c2ccccc12)C(=O)N[C@H](C(=O)N[C@H](C=O)CCCNC(=N)N)C(C)C)C(C)C)[C@@H](C)O)C(C)C)C(C)C [RIIDLLWRVRRPWKPKFVTVWVR]

SMILES: CC[C@H](C)[C@H](NC(=O)[C@H](CCCCN)NC(=O)[C@H](CCCCN)NC(=O)[C@H](CC(C)C)NC(=O)[C@H](C)NC(=O)[C@H](CCCN=C(N)N)NC(=O)[C@H](CCCCN)NC(=O)CNC(=O)[C@H](CC(C)C)NC(=O)[C@H](CCCN=C(N)N)NC(=O)[C@H](CC(C)C)NC(=O)[C@H](C)NC(=O)[C@H](CC(C)C)NC(=O)CNC(=O)[C@H](CC(N)=O)NC(=O)[C@H](CC(C)C)NC(=O)[C@H](CC(C)C)NC(=O)CN)C(=O)N[C@H](C(=O)N[C@@H](CCCCN)C(=O)N[C@@H](CCCN=C(N)N)C(=O)N[C@@H](CC(C)C)C(=O)N[C@@H](CS)C(=O)N[C@@H](CCCN=C(N)N)C(=O)O)[C@@H](C)CC [GLLNGLALRLGKRALKKIIKRLCR]
MIC [37]: 9.24 µM (≈ 25 µg/mL)
MIC [38]: 0.577 µM (≈ 1.56 µg/mL)
MIC [39]: 1.15 µM (≈ 3.12 µg/mL)
MIC [31]: 9.24 µM (≈ 25 µg/mL)
MIC [40]: 9.24 µM (≈ 25 µg/mL)
MIC [41]: 1.15 µM (≈ 3.12 µg/mL)
MIC [42]: 1.15 µM (≈ 3.12 µg/mL)
MIC [43]: 18.5 µM (≈ 50 µg/mL)

SMILES: CC[C@H](C)[C@H](NC(=O)[C@H](CC(C)C)NC(=O)CNC(=O)CNC(=O)[C@@H](NC(=O)[C@H](CCCCN)NC(=O)CNC(=O)[C@H](CC(C)C)NC(=O)[C@@H](NC(=O)[C@H](CC(=O)O)NC(=O)[C@@H](NC(=O)[C@H](CC(C)C)NC(=O)CN)C(C)C)C(C)C)C(C)C)C(=O)N[C@@H](CCCCN)C(=O)N[C@@H](CCCCN)C(=O)N[C@@H](CC(C)C)C(=O)N[C@@H](CC(C)C)C(=O)N1CCC[C@H]1C(N)=O [GLVDVLGKVGGLIKKLLP]
MIC [44]: ≥ 32 µM

MIC [23]: ≥ 40 µM
MIC [27]: 7 µM (≈ 11.7 µg/mL)
MIC [45]: 20 µM (≈ 33.5 µg/mL)
MIC [46]: 6.5 µM (≈ 10.9 µg/mL)
SMILES: NCCCC[C@H](NC(=O)[C@H](Cc1c[nH]c2ccccc12)NC(=O)[C@H](Cc1ccccc1)NC(=O)[C@H](CCCCN)NC(=O)[C@H](CCCCN)NC(=O)[C@@H](N)Cc1ccccc1)C(=O)N[C@@H](Cc1c[nH]c2ccccc12)C(=O)N[C@@H](Cc1ccccc1)C(=O)N[C@@H](CCCN=C(N)N)C(=O)N[C@@H](CCCN=C(N)N)C(=O)N[C@@H](Cc1ccccc1)C(=O)O [FKKFWKWFRRF]
